“And” between values parts separate entries of the source, which are not always exact repeats. Equal entries are not always repeated. “Also recorded” adds a separate entry of the source. Where two headings read alike, the source gives them in different places.
Tests used:
[1] = molecular target: T1, PL (pancreatic lipase) from porcine pancreas (Sus scrofa, UniProt P00591); details: cited from earlier work
T1 sequence (P00591 1-450): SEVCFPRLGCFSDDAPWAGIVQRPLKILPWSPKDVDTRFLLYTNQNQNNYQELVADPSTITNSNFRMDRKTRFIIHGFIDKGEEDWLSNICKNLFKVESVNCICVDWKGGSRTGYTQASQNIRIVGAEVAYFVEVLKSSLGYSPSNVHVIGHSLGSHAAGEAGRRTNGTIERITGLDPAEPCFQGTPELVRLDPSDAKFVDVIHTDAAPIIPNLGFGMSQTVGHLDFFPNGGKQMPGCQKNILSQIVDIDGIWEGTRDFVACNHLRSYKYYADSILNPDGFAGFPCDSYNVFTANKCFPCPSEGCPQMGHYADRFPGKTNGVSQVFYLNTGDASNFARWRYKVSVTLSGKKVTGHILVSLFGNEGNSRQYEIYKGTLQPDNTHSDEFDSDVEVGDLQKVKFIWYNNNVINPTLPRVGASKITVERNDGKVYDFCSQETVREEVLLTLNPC

hCA VB = experiment: Stopped-flow CO2 hydrase assay; format: biochemical, human; details: K i VA / K i VB
Protocol: (§1) An Applied Photophysics stopped‐flow instrument was used to assay the CA‐catalyzed CO2 hydration activity. […] The uncatalyzed rates were determined in the same manner and subtracted from the total observed rates. Stock solutions of the inhibitor (0.1 mM) were prepared in distilled−deionized water, and dilutions up to 0.01 nM were done thereafter with the assay buffer. Inhibitor and enzyme solutions were preincubated together for 15 min at room temperature before the assay, to allow for the formation of the E − I complex. The inhibition constants were obtained by nonlinear least‐squares methods using PRISM 3 and the Cheng–Prusoff equation as reported earlier and represent the mean from at least three different determinations. All CA isoforms were recombinant proteins obtained in house, as reported earlier.

hCA VII = molecular target: T2, hCA VII (Homo sapiens, UniProt Q9Y2D0); experiment: Stopped-flow CO2 hydrase assay (supplement table column); format: biochemical
T2 construct: made in house
Protocol: An Applied Photophysics stopped‐flow instrument was used to assay the CA‐catalyzed CO2 hydration activity. Phenol red (at a concentration of 0.2 mM) was used as an indicator, working at the absorbance maximum of 557 nm, with 20 mM Hepes (pH 7.4) as a buffer, and 20 mM Na2SO4 (to maintain constant ionic strength), following the initial rates of the CA‐catalyzed CO2 hydration reaction for a period of 10 − 100 s. The CO2 concentrations ranged from 1.7 to 17 mM for the determination of the kinetic parameters and inhibition constants. Enzyme concentrations ranged between 5 and 12 nM. For each inhibitor, at least six traces of the initial 5%−10% of the reaction were used to determine the initial velocity. The uncatalyzed rates were determined in the same manner and subtracted from the total observed rates. Stock solutions of the inhibitor (0.1 mM) were prepared in distilled−deionized water, and dilutions up to 0.01 nM were done thereafter with the assay buffer. Inhibitor and enzyme solutions were preincubated together for 15 min at room temperature before the assay, to allow for the formation of the E − I complex. The inhibition constants were obtained by nonlinear least‐squares methods using PRISM 3 and the Cheng–Prusoff equation as reported earlier and represent the mean from at least three different determinations. […]

hCA IX = molecular target: T3, hCA IX (Homo sapiens, UniProt Q16790); format: biochemical; details: read-out: K i hCA IX
T3 construct: made in house
Protocol: as §1

[2] = molecular target: T1, PL (pancreatic lipase) from porcine pancreas; experiment: Kinetics of PL inhibition (Lineweaver-Burk plots); format: biochemical
Protocol: The inhibition of PL by LTS0059529 on PL was also determined using Lineweaver–Burk graphs, which plot the reciprocal of initial velocity (v 0 ) against the reciprocal of substrate concentration.
The mode of inhibition of PL in the presence of LTS0059529 was determined by elaboration of UV‐vis spectroscopic data with Lineweaver–Burk plots. […] The competitive inhibition constants K i was calculated from the following equation. (2) v0=vmaxS/Km1+I/Ki+S, where ν 0 is the initial velocity in the absence and presence of the inhibitor, S and I are the concentrations of substrate and inhibitor, respectively; ν max is the maximum velocity, K m is the Michaelis–Menten constant. The replot of slopes (K m/ν max) from Lineweaver–Burk plot versus the inhibitor concentration afforded K i value as well.

[3] = molecular target: T1, PL (pancreatic lipase) from porcine pancreas; experiment: Pancreatic lipase inhibition, spectrophotometric p-nitrophenyl butyrate assay; details: IC50 (µM) ± SD, p-nitrophenyl butyrate substrate, 37°C
Protocol: The inhibition of PL (from porcine pancreas; see Supporting Information) was assessed using previously described spectrophotometric methods [15, 16, 30]. […] Thus, a lower value indicates higher inhibitory activity.
The reactions were incubated at 37°C for 10 min. Then, the substrate p‐nitrophenyl butyrate (3.2 mM in H2O/DMF 70:30, 10 μL) was pipetted, and the microplate was incubated at 37°C for 30 min under moderate shaking.

hCA XII = molecular target: T4, hCA XII (Homo sapiens, UniProt O43570); experiment: Stopped-flow CO2 hydrase assay; format: biochemical; details: mean from 3 assays, read-out: K i hCA XII
T4 construct: made in house
Protocol: as §1

hCA VA = molecular target: T5, hCA VA (Homo sapiens, UniProt P35218); experiment: Stopped-flow CO2 hydrase assay; format: biochemical; details: mean from 3 assays, read-out: K i hCA VA
T5 construct: made in house
Protocol: as §1

hCA II = molecular target: T6, hCA II (Homo sapiens, UniProt P00918); experiment: Stopped-flow CO2 hydrase assay; format: biochemical; details: mean from 3 assays, read-out: K i hCA II
T6 construct: made in house
Protocol: as §1

hCA I = molecular target: T7, hCA I (Homo sapiens, UniProt P00915); experiment: Stopped-flow CO2 hydrase assay; format: biochemical; details: mean from 3 assays, read-out: K i hCA I
T7 construct: made in house
Protocol: as §1

T7 sequence (P00915 whole entry): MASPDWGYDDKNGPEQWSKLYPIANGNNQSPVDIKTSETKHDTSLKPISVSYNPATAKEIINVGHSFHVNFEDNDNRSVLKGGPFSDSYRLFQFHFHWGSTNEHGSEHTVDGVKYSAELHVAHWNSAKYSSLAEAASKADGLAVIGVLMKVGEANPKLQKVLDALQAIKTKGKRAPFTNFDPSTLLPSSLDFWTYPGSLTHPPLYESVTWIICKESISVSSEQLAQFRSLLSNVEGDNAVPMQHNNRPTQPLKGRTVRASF
T2 sequence (Q9Y2D0 34-317): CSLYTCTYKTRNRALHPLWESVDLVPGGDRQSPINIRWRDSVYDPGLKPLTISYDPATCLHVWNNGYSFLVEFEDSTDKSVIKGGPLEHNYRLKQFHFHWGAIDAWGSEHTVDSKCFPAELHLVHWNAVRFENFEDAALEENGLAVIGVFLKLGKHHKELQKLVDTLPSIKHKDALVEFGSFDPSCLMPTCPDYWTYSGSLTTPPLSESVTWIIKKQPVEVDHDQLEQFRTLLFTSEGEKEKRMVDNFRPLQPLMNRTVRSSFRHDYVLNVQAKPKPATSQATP
T4 sequence (O43570 25-354): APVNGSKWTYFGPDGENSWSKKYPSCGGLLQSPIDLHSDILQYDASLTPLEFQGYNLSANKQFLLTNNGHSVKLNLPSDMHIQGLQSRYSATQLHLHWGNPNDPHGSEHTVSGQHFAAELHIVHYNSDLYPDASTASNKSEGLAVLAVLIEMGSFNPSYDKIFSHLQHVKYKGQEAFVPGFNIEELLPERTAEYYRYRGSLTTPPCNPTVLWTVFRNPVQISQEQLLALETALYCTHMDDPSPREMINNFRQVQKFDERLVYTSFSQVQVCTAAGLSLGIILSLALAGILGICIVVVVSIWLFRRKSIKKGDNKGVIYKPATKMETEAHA
T5 sequence (P35218 39-305): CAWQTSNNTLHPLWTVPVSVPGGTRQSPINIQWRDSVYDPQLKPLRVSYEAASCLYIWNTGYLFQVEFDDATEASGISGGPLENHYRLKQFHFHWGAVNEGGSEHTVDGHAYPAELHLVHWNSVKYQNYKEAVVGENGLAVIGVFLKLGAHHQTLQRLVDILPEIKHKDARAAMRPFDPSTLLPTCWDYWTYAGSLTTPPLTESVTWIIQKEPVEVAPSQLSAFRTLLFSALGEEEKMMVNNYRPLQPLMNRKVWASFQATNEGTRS

Row | Compound | Inhibition mode [1] | Inhibition ratio hCA VA versus hCA VB (VB more potently inhibited) (hCA VB) | Ki (hCA VII) | Ki (hCA IX) | Inhibition mode ([2]; Lineweaver-Burk plot) | Ki ([2]; from slope of L-B plot lines versus inhibitor concentration) | v max of the reaction ([2]; not affected by the competitive inhibitor) | IC50 [3] | Ki (hCA XII) | Ki (hCA VA) | Ki (hCA II) | Ki (hCA I)
1 | CCCCCCCCCCC[C@@H](C[C@@H]1OC(=O)[C@H]1CCCCCC)OC(=O)[C@H](CC(C)C)NC=O [ORL, Orlistat] | Competitive | – | – | – | – | – | – | – | – | – | – | –
2 | O=C(/C=C/c1ccc(O)c2c1[C@H](C(=O)O)[C@@H](c1ccc(O)c(O)c1)O2)O[C@H](Cc1ccc(O)c(O)c1)C(=O)O [LTS0059529, Lithospermic acid] | – | 1.15 fold | 0.6 ± 0.02 µM | 0.31 ± 0.01 µM | competitively; also recorded: Competitive | 33.1 ± 1.6 µM | 0.091 ± 0.002 mM/min | 5.4 µM and 5.45 µM | 0.0048 ± 0.003 µM | 0.69 ± 0.01 µM | > 100 µM | > 100 µM
